“Also recorded” adds a separate entry of the source.

The source of these data is PMC12455130, “Multifunctional molecular agent for tau-targeted combinational therapy of Alzheimer’s disease” (The Journal of Biological Chemistry, 2025).

The target in one assay is T1, tau peptide R3 (Homo sapiens, UniProt P10636).
T1 construct: R3 (^306VQIVYK PVDLSK VTSKCG SLGNIH HKPGGG Q^336) and rabbit anti-tau antibody were purchased from MuJin; purchased MuJin
The assay is described as follows: Endogenous (tyrosine) fluorescence quenching of tau peptide R3. The assay is classed as binding. The note with it: for n (binding sites): Hill equation. The method, then: The affinity of the synthetic compounds toward tau peptide was evaluated by endogenous fluorescence quenching experiment. The N-galloyl-substituted azacrown (ligand) can quench the endogenous fluorescence of tyrosine residues (306–310, VQIVY) on R3 peptide chain (receptor), if there exists a definite interaction between the ligand and the receptor. With titration of 4GA or 2GA (ligands) into the solution of tau peptide R3 (receptors), the endogenous fluorescence (at 310 nm) of tyrosine residues on R3 peptide chain was gradually quenched (data provided in ESI, Fig. S11). The data were then fitted by the Stern−Volmer formula to give the quenching constants (Kb) (Fig. S12). The quenching constants (Kb) and binding sites (n) of 4GA or 2GA to R3 peptide in the temperatures 25 °C and 37 °C are presented in Table 1.
The structural changes of R3 protein upon binding to 4GA/2GA/GA was documented by fluorescence spectroscopy. Briefly, various concentrations of 4GA/2GA/GA (0, 5, 10, 15, 20, 30, 40, 60, or 80 μM) were added to the 15 μM R3 protein in 50 mM Tris–HCl buffer (pH 7.4) in a 10-mm quartz cuvette. The measurement was carried out by Hitachi F-7000 equipped with a circulating water bath at 25 and 37 °C. The fluorescence spectra of R3 protein were documented from 290 nm to 380 nm with 275 nm excitation. The widths of excitation and emission slit were set at 5 and 10 nm, respectively.
The Stern–Volmer (Formula 4.1) was used to determine the quenching mechanism, either static or dynamic quenching:(4.1) F0/F=1+KSV[Q] where F0 and F are the fluorescence intensity without and with quencher, [Q] means the concentration of quencher, and Ksv is the Stern–Volmer constant.
Furthermore, the binding constant (Kb) and number of the binding sites (n) of quencher on R3 protein could be calculated by Hill (Equation 4.2):(4.2) log[F0−F/F]=logKb+nlog[Q]
The tyrosine fluorescence quenching experiment was carried out to determine the binding ability between inhibitors and R3 protein. […] Furthermore, this experiment is reasonable given the relatively weak fluorescence intensity of 4GA, 2GA, and GA (Figure S10). With titration of inhibitors into the solution of R3 protein, the fluorescence of tyrosine residues was gradually quenched in two temperatures of 25°C and 37°C, implying that 4GA or 2GA can interact with R3.
Fluorescence quenching usually proceeds through either dynamic quenching or static quenching. Dynamic quenching refers to the contact process between excited fluorophore and quencher, while static quenching refers to the formation of fluorophore-quencher complexes. A series of data processing about the fluorescence change of tyrosine residues at 25°C and 37°C was utilized to figure out the binding constant. Compared to the standard Stern-Volmer curves, a minor positive deviation from linearity was observed by plotting F0/F versus concentration, indicating a mixture of dynamic and static patterns (Figure S11). Furthermore, the Hill equation was used to calculate the quenching constant and binding sites of inhibitors on R3 protein (Figure S12).

Another assay has as its target T2, R3 fibrils (Homo sapiens, UniProt P10636).
T2 construct: R3 (^306VQIVYK PVDLSK VTSKCG SLGNIH HKPGGG Q^336) and rabbit anti-tau antibody were purchased from MuJin; purchased MuJin
The assay is described as follows: TEM of Cu2+-promoted R3 fibrils. The assay is classed as biochemical. The note with it: R3 15 μM, Cu2+ 3.8 μM, heparin 3.8 μM, compound 10 μM, Hepes pH 7.4. The procedure:
However, the influence of 4ME or GA on Cu^2+-promoted R3 aggregation was small, because these compounds could only suppress Cu^2+ promotion effect; their effect on R3 self-aggregation was almost negligible.
For detecting the inhibitory efficiency of inhibitors, 15 μM R3, 3.8 μM heparin, and 4GA/2GA/4ME/GA (0, 10, and 40 μM) in 50 mM Tris–HCl buffer (pH 7.4) was incubated at 37 °C for 3 h, respectively. For exploring the effect of Cu^2+ on R3 aggregation, 15 μM R3, 3.8 μM heparin was mixed in the presence or the absence of 3.8 μM Cu^2+ in 50 mM Hepes buffer (pH 7.4). Then, 10 μM 4GA/2GA/4ME/GA was added to the solution. After 3 h incubation, 10 μl of each solution was applied on a carbon support membrane, followed by 10 μl of 2% uranyl acetate, and dried at room temperature. The operation was carried out on transmission electron microscope (JEM-2100, provieded by JEOL).

In another assay the test system is SK-N-SH cells. The experiment in a line: Intracellular ROS measurement (DCFH, flow cytometry and CLSM). In kind it is cell-based, human. The note with it: 15 μM R3, 3.8 μM Cu2+, 10 μM compound; for ROS in SK-N-SH cells generated by R3–Cu2+ complex (flow cytometry): 24 h. The method, then:
The flow cytometry and confocal laser scanning microscopy (CLSM) were used to show the intracellular ROS production. […] Consequently, the reductive phenolic hydroxyl groups might be a key factor for scavenging ROS triggered by R3–Cu^2+ complex.
SK-N-SH cells were seeded on a 12-well plate at a density of 1 × 10^5/well and incubated at 37 °C for 24 h, followed by treating with 15 μM R3 in the presence or the absence of 3.8 μM Cu^2+ in FBS-free DMEM. Two hours later, 10 μM 4GA/2GA/4ME/GA was added to the medium, respectively. After 24 h, the culture medium was removed, and 10 μM DCFH diacetate in FBS-free DMEM was added and incubated for 45 min at 37 °C. Samples were washed three times with PBS, and 4% polyformaldehyde was added and fixed at room temperature for 20 min. Cells were observed under a CLSM. For quantitative analysis, cells were harvested and washed three times with ice-cold PBS and resuspended in PBS. The fluorescence intensity of DCFH was analyzed by flow cytometry (CytoFLEX LX).

T2 sequence (P10636 623-653 limits assumed): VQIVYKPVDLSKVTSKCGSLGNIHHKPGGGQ
T1 sequence (P10636 623-653 limits assumed): as above

Take `CN1CCN(C(=O)c2cc(O)c(O)c(O)c2)CCN(C)CCN(C(=O)c2cc(O)c(O)c(O)c2)CC1` [2GA, (4,10-dimethyl-1,4,7,10-tetraazacyclododecane-1,7-diyl)bis((3,4,5-trihydroxyphenyl)methanone)]: at tau peptide R3 (25 °C), the “n (binding sites)” value was 1.14 ± 0.05. For the same molecule, at tau peptide R3 (37 °C), the “n (binding sites)” value was determined as 1.32 ± 0.04. The “morphology of Cu2+-promoted R3 fibrils (TEM)” value (“morphology” for short) at R3 fibrils is “the resulting filaments become sparse and small”. In the assay with SK-N-SH cells, the “CLSM green fluorescence (intracellular ROS)” value (“CLSM green fluorescence” below) is recorded as “almost disappeared” and the “ROS in SK-N-SH cells generated by R3–Cu2+ complex (flow cytometry)” value (shortened to “ROS in SK-N-SH cells generated”) is “appreciably decreased, almost to the control level”.

Consider `CN1CCN(C)CCN(C)CCN(C)CC1` [4ME, 1,4,7,10-tetramethyl-1,4,7,10-tetraazacyclododecane, reference compound], for which, at R3 fibrils, the “morphology” value is “small”. Moreover, in the assay on SK-N-SH cells, the “ROS in SK-N-SH cells generated” value was “did not decrease”.

Consider `O=C(O)c1cc(O)c(O)c(O)c1` [GA, gallic acid, reference compound], for which, at tau peptide R3 (25 °C and 37 °C), the “binding ability / interaction with R3” value was “no significant interaction between GA and R3; also recorded: negligible binding ability”. Besides, on R3 fibrils, the “morphology” value is listed as “small”. Further, in the assay on SK-N-SH cells, the “CLSM green fluorescence” value was “almost disappeared” and the “ROS in SK-N-SH cells generated” value is “appreciably decreased, almost to the control level”.

Take `O=C(c1cc(O)c(O)c(O)c1)N1CCN(C(=O)c2cc(O)c(O)c(O)c2)CCN(C(=O)c2cc(O)c(O)c(O)c2)CCN(C(=O)c2cc(O)c(O)c(O)c2)CC1` [4GA, (1,4,7,10-tetraazacyclododecane-1,4,7,10-tetrayl)tetrakis((3,4,5-trihydroxyphenyl)methanone)]: the “n (binding sites)” value on tau peptide R3 (25 °C) is 1.33 ± 0.05; at tau peptide R3 (37 °C), 1.54 ± 0.07. The “morphology” value on R3 fibrils is “the resulting filaments become sparse and small”. Besides, the “CLSM green fluorescence” value in the assay with SK-N-SH cells was “almost disappeared”. Also, the “ROS in SK-N-SH cells generated” value in the assay on SK-N-SH cells is “appreciably decreased, almost to the control level”.
